Measurements taken from patent publication EP0322133A1, “Quinazoline derivatives” (SmithKline Beecham Intercredit B.V., priority 1987, dated 1989).
Counter-ions that a name gives are not always drawn.

Each molecule was assayed on pentagastrin stimulated gastric acid secretion (assay: Rat lumen perfused stomach (modified Ghosh and Schild procedure)). Settings: i.v. administration.
Type: in vivo
Excerpt: Using a modification of the procedure described by Ghosh and Schild (Br. J. Pharmacology, 13, 54, 1958), the compounds of the following Examples were found on i.v. administration at a concentration of 10µmole/kg to cause an inhibition of pentagastrin stimulated gastric acid secretion as indicated in the following Table.
With “2-phenylethylamino-4-(2-methylphenylamino)quinazoline [Example 16]” the “Rat G.S. % inhibition @ 10µmole/kg” value was 31%.

Same assay, conditions: iv, i.v. administration, 10µmole/kg, read-out: Rat G.S. % inhibition @ 10µmole/kg
For `Cc1ccccc1Nc1nc(N)nc2c(C)cccc12` [Example 6, 2-amino-8-methyl-4-(2-methylphenylamino)quinazoline], the inhibition at 10 µmol/kg was 48%. For `Cc1ccccc1CNc1nc(N)nc2ccccc12` [Example 25, 2-amino-4-(2-methylbenzylamino)quinazoline], the inhibition at 10 µmol/kg was 24%. With `COc1cccc2c(N(C)c3ccccc3)nc(Nc3ccccc3C)nc12` [Example 24, 4-(N-methylphenylamino)-2-(2-methylphenylamino)-8-methoxyquinazoline] the inhibition at 10 µmol/kg was 97%. Molecule `COc1cccc2c(N(C)c3ccccc3)nc(N)nc12` [Example 29, 2-amino-4-(N-methylphenylamino)-8-methoxyquinazoline hydrochloride] has an inhibition at 10 µmol/kg of 13%. Molecule `CN(c1ccccc1)c1nc(Nc2ccccc2)nc2ccccc12` [Example 27, 2-phenylamino-4-(N-methylphenylamino)quinazoline hydrochloride] has an inhibition at 10 µmol/kg of 71%. `Cc1ccccc1Nc1nc(N2CCCC2)nc2ccccc12` [Example 8, 2-pyrrolidino-4-(2-methylphenylamino)quinazoline] was tested, and the inhibition at 10 µmol/kg was 17%. For `COc1cccc2c(Nc3ccccc3C)nc(N(C)c3ccccc3)nc12` [Example 21, 2-(N-methylphenylamino)-4-(2-methylphenylamino)-8-methoxyquinazoline], the inhibition at 10 µmol/kg was 37%. In the case of `Cc1ccccc1Nc1nc(N(C)c2ccccc2)nc2ccccc12` [Example 22, 2-(N-methylphenylamino)-4-(2-methylphenylamino)quinazoline hydrochloride], the inhibition at 10 µmol/kg is reported as 27%. For `COc1ccccc1Nc1nc(N)nc2c(OC)cccc12` [Example 18, 2-amino-8-methoxy-4-(2-methoxyphenylamino)quinazoline], the inhibition at 10 µmol/kg was 12%. Molecule `COc1cccc2c(NCc3ccccc3C)nc(N)nc12` [Example 4, 2-amino-8-methoxy-4-(2-methylbenzylamino)quinazoline] has an inhibition at 10 µmol/kg of 37%. In the case of `Cc1ccccc1Nc1nc(N)nc2ccccc12` [Example 7, 2-amino-4-(2-methylphenylamino)quinazoline], the inhibition at 10 µmol/kg is reported as 20%. `CNc1nc(Nc2ccccc2C)c2cccc(OC)c2n1` [Example 13, 2-methylamino-8-methoxy-4-(2-methylphenylamino)quinazoline] was tested, and the inhibition at 10 µmol/kg was 20%. In the case of `Cc1cc(O)ccc1Nc1nc(N(C)c2ccccc2)c2ccccc2n1` [Example 30, 2-[(4-hydroxy-2-methylphenyl)amino]-4-(N-methylphenylamino) quinazoline hydrochloride], the inhibition at 10 µmol/kg is reported as 23%. `COc1cccc2c(Nc3ccccc3C)nc(N3CCCC3)nc12` [Example 15, 2-pyrrolidino-8-methoxy-4-(2-methylphenylamino)quinazoline] gave an inhibition at 10 µmol/kg of 31%. Molecule `COc1cccc2c(Nc3ccccc3C)nc(N(C)C)nc12` [Example 5, 2-dimethylamino-8-methoxy-4-(2-methylphenylamino)quinazoline] has an inhibition at 10 µmol/kg of 37%. Molecule `CCc1ccc2nc(N)nc(Nc3ccccc3C)c2c1` [Example 11, 2-amino-4-(2-methylphenylamino)-6-ethylquinazoline] has an inhibition at 10 µmol/kg of 28%. In the case of `COc1cccc2c(Nc3ccccc3C)nc(N)nc12` [Example 1, 2-amino-8-methoxy-4-(2-methylphenylamino)quinazoline], the inhibition at 10 µmol/kg is reported as 60%. `Cc1ccccc1CNc1nc(N(C)c2ccccc2)c2ccccc2n1` [Example 31, 2-(2-methylbenzylamino)-4-(N-methylphenylamino)quinazoline hydrochloride] gave an inhibition at 10 µmol/kg of 8%. In the case of `Cc1cc(F)ccc1Nc1nc(N(C)c2ccccc2)c2ccccc2n1` [Example 32, 2-[(2-methyl-4-fluorophenyl)amino]-4-(N-methylphenylamino)quinazoline hydrochloride], the inhibition at 10 µmol/kg is reported as 96%. Work on `COc1ccc(Nc2nc(N)nc3c(OC)cccc23)c(C)c1` [Example 3, 2-amino-8-methoxy-4-(2-methyl-4-methoxyphenylamino)quinazoline] yielded an inhibition at 10 µmol/kg of 16%. `CN(c1ccccc1)c1nc(N(C)c2ccccc2)c2ccccc2n1` [Example 20, 2,4-Bis-(N-methylphenylamino)quinazoline hydrochloride] showed an inhibition at 10 µmol/kg of 72%. In the case of `COc1cccc2c(NCc3ccccc3)nc(N)nc12` [Example 2, 2-amino-8-methoxy-4-benzylaminoquinazoline], the inhibition at 10 µmol/kg is reported as 25%. With `Cc1ccccc1Nc1nc(N(C)c2ccccc2)c2ccccc2n1` [Example 26, 2-(2-methylphenylamino)-4-(N-methylphenylamino)quinazoline hydrochloride] the inhibition at 10 µmol/kg was 79%.
